Source: the OligoGym collection
HELM strings list units from the 5' end as sugar, base in round brackets, then linkage (d deoxyribose, r ribose, m 2'-O-methyl, p phosphodiester). Strings are as the collection lists them; they lack the last nucleoside at the 3' end of the tested compound. [moe] = 2'-O-(2-methoxyethyl) (MOE); [sp] = phosphorothioate linkage; [m5C] = 5-methylcytosine

Molecular target: GFAP
Assay: mouse, dose not given
Details: ASO

Substance	3 h FOB score [score 0-7]
RNA1{[moe]([m5C])[sp].[moe](A)p.[moe](T)p.[moe](G)p.[moe](G)[sp].d([m5C])[sp].d([m5C])[sp].d(T)[sp].d(G)[sp].d(G)[sp].d([m5C])[sp].d([m5C])[sp].d(T)[sp].d(T)[sp].d(G)[sp].[moe](A)p.[moe](G)p.[moe](A)[sp].[moe](A)}$$$$ (last 3' nucleoside missing)	1
RNA1{[moe](G)[sp].[moe](T)p.[moe](G)p.[moe](T)p.[moe](G)p.[moe](T)p.d(A)[sp].d(T)[sp].d(T)[sp].d(A)[sp].d(G)[sp].d(G)[sp].d(A)[sp].d(T)[sp].d([m5C])[sp].d([m5C])[sp].[moe]([m5C])p.[moe](A)[sp].[moe](T)}$$$$ (last 3' nucleoside missing)	4
RNA1{[moe](G)[sp].[moe](T)p.[moe]([m5C])p.[moe](T)p.[moe](T)[sp].d(T)[sp].d(A)[sp].d(T)[sp].d(T)[sp].d(T)[sp].d(T)[sp].d(T)[sp].d([m5C])[sp].d([m5C])[sp].d(T)[sp].[moe]([m5C])p.[moe](A)p.[moe](G)[sp].[moe]([m5C])}$$$$ (last 3' nucleoside missing)	5
RNA1{[moe](T)[sp].[moe](G)p.[moe]([m5C])p.[moe]([m5C])p.d(A)[sp].d(T)[sp].d(T)[sp].d(T)[sp].d(A)[sp].d(T)[sp].d([m5C])[sp].d(T)[sp].d(G)[sp].d(T)[sp].[moe](G)p.[moe]([m5C])p.[moe](T)p.[moe](T)[sp].[moe](T)}$$$$ (last 3' nucleoside missing)	0
RNA1{[moe](T)[sp].[moe](T)p.[moe](G)p.[moe](G)p.[moe]([m5C])[sp].d(A)[sp].d(G)[sp].d(T)[sp].d(A)[sp].d(T)[sp].d(T)[sp].d(A)[sp].d([m5C])[sp].d([m5C])[sp].d(T)[sp].[moe]([m5C])p.[moe](T)p.[moe](A)[sp].[moe]([m5C])}$$$$ (last 3' nucleoside missing)	2
RNA1{[moe](G)[sp].[moe](T)p.[moe](G)p.[moe](A)p.[moe](G)[sp].d(G)[sp].d([m5C])[sp].d(T)[sp].d(T)[sp].d(T)[sp].d(T)[sp].d(G)[sp].d(A)[sp].d(G)[sp].d(A)[sp].[moe](T)p.[moe](A)p.[moe](T)[sp].[moe]([m5C])}$$$$ (last 3' nucleoside missing)	5
RNA1{[moe](T)[sp].[moe](G)p.[moe]([m5C])p.[moe](T)p.[moe](T)[sp].d(T)[sp].d(T)[sp].d(G)[sp].d([m5C])[sp].d([m5C])[sp].d([m5C])[sp].d([m5C])[sp].d([m5C])[sp].d(T)[sp].d([m5C])[sp].[moe](G)p.[moe](A)p.[moe](A)[sp].[moe](T)}$$$$ (last 3' nucleoside missing)	4
RNA1{[moe](G)[sp].[moe](T)p.[moe](G)p.[moe](T)p.[moe](A)[sp].d(T)[sp].d(T)[sp].d(A)[sp].d(G)[sp].d(G)[sp].d(A)[sp].d(T)[sp].d([m5C])[sp].d([m5C])[sp].d([m5C])[sp].[moe](A)p.[moe](T)p.[moe]([m5C])[sp].[moe](T)}$$$$ (last 3' nucleoside missing)	4
RNA1{[moe](T)[sp].[moe](G)p.[moe](G)p.[moe](T)p.[moe](G)p.d([m5C])[sp].d(T)[sp].d(T)[sp].d(T)[sp].d(T)[sp].d(G)[sp].d([m5C])[sp].d([m5C])[sp].d([m5C])[sp].d([m5C])[sp].[moe]([m5C])p.[moe](T)p.[moe](G)[sp].[moe](T)}$$$$ (last 3' nucleoside missing)	0
RNA1{[moe](T)[sp].[moe](T)p.[moe](G)p.[moe](T)p.[moe]([m5C])[sp].d(T)[sp].d(T)[sp].d(T)[sp].d(A)[sp].d(T)[sp].d(T)[sp].d(T)[sp].d(T)[sp].[moe](T)p.[moe]([m5C])p.[moe]([m5C])[sp].[moe](T)}$$$$ (last 3' nucleoside missing)	0
RNA1{[moe]([m5C])[sp].[moe](T)p.[moe](T)p.[moe](T)p.[moe](T)p.d(G)[sp].d(A)[sp].d(G)[sp].d(A)[sp].d(T)[sp].d(A)[sp].d(T)[sp].d([m5C])[sp].d(T)[sp].d(T)[sp].[moe](G)p.[moe](T)p.[moe](G)[sp].[moe](A)}$$$$ (last 3' nucleoside missing)	0
RNA1{[moe](G)[sp].[moe](T)p.[moe](G)p.[moe]([m5C])p.[moe](T)[sp].d(G)[sp].d([m5C])[sp].d(T)[sp].d(G)[sp].d([m5C])[sp].d([m5C])[sp].d(A)[sp].d(G)[sp].d(A)[sp].d(G)[sp].[moe](T)p.[moe]([m5C])p.[moe]([m5C])[sp].[moe](T)}$$$$ (last 3' nucleoside missing)	6
RNA1{[moe]([m5C])[sp].[moe](A)p.[moe](G)p.[moe](T)p.[moe](A)p.[moe](T)p.d(T)[sp].d(A)[sp].d([m5C])[sp].d([m5C])[sp].d(T)[sp].d([m5C])[sp].d(T)[sp].d(A)[sp].d([m5C])[sp].d(T)[sp].[moe](A)p.[moe](G)[sp].[moe](T)}$$$$ (last 3' nucleoside missing)	0
RNA1{[moe](A)[sp].[moe]([m5C])p.[moe](G)p.[moe](T)p.[moe]([m5C])p.[moe](A)p.d([m5C])[sp].d(A)[sp].d(T)[sp].d(T)[sp].d([m5C])[sp].d(A)[sp].d([m5C])[sp].d(T)[sp].d(A)[sp].d(A)[sp].[moe](T)p.[moe](A)[sp].[moe](T)}$$$$ (last 3' nucleoside missing)	0
RNA1{[moe](T)[sp].[moe](G)p.[moe](T)p.[moe](G)p.[moe](T)[sp].d(A)[sp].d(T)[sp].d(T)[sp].d(A)[sp].d(G)[sp].d(G)[sp].d(A)[sp].d(T)[sp].[moe]([m5C])p.[moe]([m5C])p.[moe]([m5C])[sp].[moe](A)}$$$$ (last 3' nucleoside missing)	4
RNA1{[moe](T)[sp].[moe](T)p.[moe](T)p.[moe](G)p.[moe](A)p.d(G)[sp].d(A)[sp].d(T)[sp].d(A)[sp].d(T)[sp].d([m5C])[sp].d(T)[sp].d(T)[sp].d(G)[sp].d(T)[sp].[moe](G)p.[moe](A)p.[moe]([m5C])[sp].[moe]([m5C])}$$$$ (last 3' nucleoside missing)	3
RNA1{[moe](G)[sp].[moe](T)p.[moe](G)p.[moe]([m5C])p.[moe](T)[sp].d(T)[sp].d(T)[sp].d(A)[sp].d(G)[sp].d(T)[sp].d(G)[sp].d(A)[sp].d([m5C])[sp].d([m5C])[sp].d(T)[sp].[moe](G)p.[moe](T)p.[moe](G)[sp].[moe](A)}$$$$ (last 3' nucleoside missing)	5
RNA1{[moe](A)[sp].[moe](G)p.[moe]([m5C])p.[moe]([m5C])p.[moe](T)[sp].d(G)[sp].d(G)[sp].d(T)[sp].d(T)[sp].d(A)[sp].d(G)[sp].d([m5C])[sp].d([m5C])[sp].[moe](T)p.[moe](T)p.[moe](T)[sp].[moe]([m5C])}$$$$ (last 3' nucleoside missing)	4
RNA1{[moe](G)[sp].[moe](T)p.[moe]([m5C])p.[moe](A)p.[moe](G)[sp].d([m5C])[sp].d([m5C])[sp].d(T)[sp].d(G)[sp].d(G)[sp].d(T)[sp].d(T)[sp].d(A)[sp].[moe](G)p.[moe]([m5C])p.[moe]([m5C])[sp].[moe](T)}$$$$ (last 3' nucleoside missing)	1
